Results as given in patent publication US9862686B2, “N1-sulfonyl-5-fluoropyrimidinone derivatives” (Adama Makhteshim Ltd., priority 2009, dated 2018).
Read-outs that look alike come from different tables or passages of the source.

Legend:
[1] = test system: Mycosphaerella graminicola; Anamorph: Septoria tritici; Bayer Code SEPTTR; assay: Fungicidal activity: leaf blotch of wheat, protectant and curative treatment of inoculated wheat plants; type: in vivo; conditions: Zymoseptoria tritici
Experimental: Evaluation of Fungicidal Activity: Leaf Blotch of Wheat (Mycosphaerella graminicola; Anamorph: Septoria tritici; Bayer Code SEPTTR)
Wheat plants (variety Yuma) were grown from seed in a greenhouse in 50% mineral soil/50% soil-less Metro mix until the first leaf was fully emerged, with 7-10 seedlings per pot. These plants were inoculated with an aqueous spore suspension of Septoria tritici either prior to or after fungicide treatments. After inoculation the plants were kept in 100% relative humidity (one day in a dark dew chamber followed by two to three days in a lighted dew chamber) to permit spores to germinate and infect the leaf. The plants were then transferred to a greenhouse for disease to develop.
The following table presents the activity of typical compounds of the present disclosure when evaluated in these experiments. The effectiveness of the test compounds in controlling disease was determined by assessing the severity of disease on treated plants, then converting the severity to percent control based on the level of disease on untreated, inoculated plants.
In each case of Table II the rating scale is as follows: […]

[2] = 24 h, One-Day Protectant (1DP), 100 ppm, wheat plants (variety Yuma), percent control vs untreated inoculated plants, read-out: SEPTTR 100 PPM 1DP (% Disease Control rating)
[3] = 72 h, Three-Day Curative (3DC), 100 ppm, wheat plants (variety Yuma), percent control vs untreated inoculated plants, read-out: SEPTTR 100 PPM 3DC (% Disease Control rating)
[4] = 24 h, read-out: SEPTTR 100 PPM 1DP (% Disease Control rating)
[5] = 72 h, read-out: SEPTTR 100 PPM 3DC (% Disease Control rating)

melting point | Structure (SMILES) | pest or weed control at 100 ppm [1, 2] [%] | pest or weed control at 100 ppm [1, 3] [%] | pest or weed control at 100 ppm [1, 4] [%] | pest or weed control at 100 ppm [1, 5] [%]
203 to 204 °C | CN(C)/C=N/c1nc(=O)n(S(=O)(=O)c2ccccc2)cc1F [Cmpd 1, N′-(1-benzenesulfonyl-5-fluoro-2-oxo-1,2-dihydro-pyrimidin-4-yl)-N,N-dimethylformamidine] | 76 to 100 | 76 to 100 | – | –
207 to 210 °C | CN(C)/C=N/c1nc(=O)n(S(=O)(=O)c2ccc(Cl)cc2)cc1F [Cmpd 2, N′-[1-(4-chloro-benzenesulfonyl)-5-fluoro-2-oxo-1,2-dihydro-pyrimidin-4-yl]-N,N-dimethylformamidine] | 76 to 100 | 76 to 100 | – | –
133 to 134 °C | CN(C)/C=N/c1nc(=O)n(S(C)(=O)=O)cc1F [Cmpd 3] | 76 to 100 | 76 to 100 | – | –
199 to 203 °C | Cc1ccc(S(=O)(=O)n2cc(F)c(/N=C/N(C)C)nc2=O)cc1 [Cmpd 4] | 76 to 100 | 76 to 100 | – | –
187 to 189 °C | Nc1nc(=O)n(S(=O)(=O)c2cccs2)cc1F [Cmpd 9] | 76 to 100 | 76 to 100 | – | –
172 to 174 °C | Nc1nc(=O)n(S(=O)(=O)Cc2ccccc2)cc1F [Cmpd 12] | 76 to 100 | 76 to 100 | – | –
202 to 204 °C | Nc1nc(=O)n(S(=O)(=O)c2ccc(C(F)(F)F)cc2)cc1F [Cmpd 14] | 76 to 100 | 76 to 100 | – | –
220 to 223 °C | CS(=O)(=O)c1ccc(S(=O)(=O)n2cc(F)c(N)nc2=O)cc1 [Cmpd 15] | 51 to 75 | 76 to 100 | – | –
210 °C | N#Cc1ccc(S(=O)(=O)n2cc(F)c(N)nc2=O)cc1 [Cmpd 16] | 51 to 75 | 76 to 100 | – | –
209 to 212 °C | Nc1nc(=O)n(S(=O)(=O)c2c(Cl)cccc2Cl)cc1F [Cmpd 18] | 76 to 100 | 76 to 100 | – | –
156 to 159 °C | Nc1nc(=O)n(S(=O)(=O)Cc2ccc(Br)cc2)cc1F [Cmpd 19] | 76 to 100 | 76 to 100 | – | –
168 to 170 °C | Nc1nc(=O)n(S(=O)(=O)Cc2ccc(Cl)cc2)cc1F [Cmpd 20] | – | – | – | –
164 to 166 °C | Cc1ccc(CS(=O)(=O)n2cc(F)c(N)nc2=O)cc1 [Cmpd 21] | – | – | – | –
132 °C (dec.) | Cc1cc(Oc2ncc(C(F)(F)F)cc2Cl)ccc1S(=O)(=O)n1cc(F)c(N)nc1=O [Cmpd 23] | 76 to 100 | 76 to 100 | – | –
195 to 196 °C | Nc1nc(=O)n(S(=O)(=O)c2ccccc2)cc1F [Cmpd 24] | 76 to 100 | 76 to 100 | – | –
208 to 210 °C | Cc1ccc(S(=O)(=O)n2cc(F)c(N)nc2=O)cc1 [Cmpd 25] | 76 to 100 | 76 to 100 | – | –
207 to 211 °C | CN(C)/C=N/c1nc(=O)n(S(=O)(=O)c2c(Cl)cccc2Cl)cc1F [Cmpd 29] | 76 to 100 | 76 to 100 | – | –
152 to 154 °C | CN(C)/C=N/c1nc(=O)n(S(=O)(=O)Cc2ccccc2)cc1F [Cmpd 30] | – | – | – | –
140 to 143 °C | CN(C)/C=N/c1nc(=O)n(S(=O)(=O)Cc2ccc(Cl)cc2)cc1F [Cmpd 31] | – | – | – | –
150 to 152 °C | Cc1ccc(CS(=O)(=O)n2cc(F)c(/N=C/N(C)C)nc2=O)cc1 [Cmpd 32] | – | – | – | –
159 to 162 °C | CC(=O)Nc1nc(=O)n(S(=O)(=O)c2ccc(Cl)cc2)cc1F [Cmpd 34] | 76 to 100 | 76 to 100 | – | –
148 to 154 °C (dec.) | CCC(=O)Nc1nc(=O)n(S(=O)(=O)c2ccc(Cl)cc2)cc1F [Cmpd 35] | 76 to 100 | 76 to 100 | – | –
156 to 159 °C | O=C(Nc1nc(=O)n(S(=O)(=O)c2ccc(Cl)cc2)cc1F)c1ccccc1 [Cmpd 37] | 76 to 100 | 26 to 50 | – | –
211 to 214 °C | O=C(Nc1ccccc1)Nc1nc(=O)n(S(=O)(=O)c2ccc(Cl)cc2)cc1F [Cmpd 41] | – | – | – | –
205 to 210 °C | O=C(Nc1ccccc1)Nc1nc(=O)n(S(=O)(=O)c2c(Cl)cccc2Cl)cc1F [Cmpd 42] | 0 to 25 | 26 to 50 | – | –
185 to 191 °C | COc1ccc(S(=O)(=O)n2cc(F)c(NC(=O)Nc3ccccc3)nc2=O)cc1 [Cmpd 43] | 0 to 25 | 26 to 50 | – | –
190 to 195 °C | COc1ccc(S(=O)(=O)n2cc(F)c(NC(=S)Nc3ccccc3)nc2=O)cc1 [Cmpd 45] | 26 to 50 | 51 to 75 | – | –

The remaining lines, values behind:

Structure (SMILES) | melting point | pest or weed control at 100 ppm [1, 2] [%] | pest or weed control at 100 ppm [1, 3] [%] | pest or weed control at 100 ppm [1, 4] [%] | pest or weed control at 100 ppm [1, 5] [%]
O=C(Nc1nc(=O)n(S(=O)(=O)c2ccc(Cl)cc2)cc1F)Oc1ccccc1 | 192 to 195 °C | – | – | – | –
COc1ccc(S(=O)(=O)n2cc(F)c(/N=C/N(C)C)nc2=O)cc1 [Cmpd 5] | 188 to 190 °C | 76 to 100 | 76 to 100 | – | –
CCCS(=O)(=O)n1cc(F)c(/N=C/N(C)C)nc1=O [Cmpd 6] | 144 to 145 °C | 76 to 100 | 76 to 100 | – | –
CN(C)/C=N/c1nc(=O)n(S(=O)(=O)c2cccs2)cc1F [Cmpd 7] | 205 to 207 °C | 76 to 100 | 76 to 100 | – | –
Nc1nc(=O)n(S(=O)(=O)c2ccc(Cl)cc2)cc1F [Cmpd 8, 4-amino-1-(4-chloro-benzenesulfonyl)-5-fluoro-1H-pyrimidin-2-one] | – | 76 to 100 | 76 to 100 | – | –
CCCS(=O)(=O)n1cc(F)c(N)nc1=O [Cmpd 10] | 144 to 146 °C | 76 to 100 | 76 to 100 | – | –
Cn1cnc(S(=O)(=O)n2cc(F)c(N)nc2=O)c1 [Cmpd 11] | 235 to 237 °C | 26 to 50 | 26 to 50 | – | –
Nc1nc(=O)n(S(=O)(=O)c2ccc(Cl)cc2Cl)cc1F [Cmpd 13] | 229 to 230 °C | 76 to 100 | 76 to 100 | – | –
Nc1nc(=O)n(S(=O)(=O)c2ccc(Cl)c(Cl)c2)cc1F [Cmpd 17] | 206 to 207 °C | 76 to 100 | 76 to 100 | – | –
Cc1cc(S(=O)(=O)n2cc(F)c(N)nc2=O)ccc1Oc1ncc(C(F)(F)F)cc1Cl [Cmpd 22] | – | 76 to 100 | 76 to 100 | – | –
COc1ccc(S(=O)(=O)n2cc(F)c(N)nc2=O)cc1 [Cmpd 26] | 182.5 °C | 76 to 100 | 76 to 100 | – | –
CS(=O)(=O)n1cc(F)c(N)nc1=O [Cmpd 27] | 181 to 184 °C | 76 to 100 | 76 to 100 | – | –
CN(C)/C=N/c1nc(=O)n(S(=O)(=O)c2cn(C)cn2)cc1F [Cmpd 28, N′-[5-fluoro-1-(1-methyl-1H-imidazole-4-sulfonyl)-2-oxo-1,2-dihydro-pyrimidin-4-yl]-N,N-dimethylformamidine] | – | 26 to 50 | 51 to 75 | – | –
O=C(Nc1nc(=O)n(S(=O)(=O)c2ccccc2)cc1F)c1ccccc1 [Cmpd 33, N-(1-benzenesulfonyl-5-fluoro-2-oxo-1,2-dihydro-pyrimidin-4-yl)-benzamide] | – | – | – | 76 to 100 | 26 to 50
CC(C)(C)C(=O)Nc1nc(=O)n(S(=O)(=O)c2ccc(Cl)cc2)cc1F [Cmpd 36] | 129 to 132 °C | 76 to 100 | 76 to 100 | – | –
O=C(Nc1nc(=O)n(S(=O)(=O)c2ccc(Cl)cc2)cc1F)c1ccc(Cl)cc1 [Cmpd 38, 4-chloro-N-[1-(4-chlorobenzenesulfonyl)-5-fluoro-2-oxo-1,2-dihydropyrimidin-4-yl]benzamideamide] | – | 76 to 100 | 0 to 25 | – | –
Cc1ccc(C(=O)Nc2nc(=O)n(S(=O)(=O)c3ccc(Cl)cc3)cc2F)cc1 [Cmpd 39] | 156 to 158 °C | 0 to 25 | 76 to 100 | – | –
O=C(Nc1ccccc1)Nc1nc(=O)n(S(=O)(=O)c2ccccc2)cc1F [Cmpd 40, 1-(1-benzenesulfonyl-5-fluoro-2-oxo-1,2-dihydropyrimidin-4-yl)-3-phenylurea] | 210 to 214 °C | – | – | 0 to 25 | 26 to 50
O=c1nc(NC(=S)Nc2ccccc2)c(F)cn1S(=O)(=O)c1ccccc1 [Cmpd 44, (1-benzenesulfonyl-5-fluoro-2-oxo-1,2-dihydropyrimidin-4-yl)-3-phenylthiourea] | 205 to 208 °C | – | – | 0 to 25 | 26 to 50
